Measurements from patent publication US20140271922A1, “PIRENZEPINE AS AN AGENT IN CANCER TREATMENT” (PROTEOSYS AG, priority 2009, published 2014).
“Also recorded” adds a separate entry of the source.

Tested on: Human H460 Large Cell Lung Cancer (NCI-H460 human NSCLC cells)
Experiment: Tumor growth in the H460 lung tumor xenograft model
Assay type: in vivo, Female NMRI nude mice
Settings: for effect on tumor growth, single agent (in words): PSY 310 alone, 50 mg/kg/d po, 50 mg/kg/day; for potentiation of the cytostatic effects of cisplatin (in words): PSY 310 po co-administered with cisplatin ip
Procedure: PSY 310 was tested with 2 different dosing schedules of cisplatin. • Animals: Female NMRI nude mice (Janvier, Le Genest St Isle, France), age: 6-7 weeks at start of experiment Janvier, Le Genest St Isle, France; age 5-6 weeks). 70 animals were inoculated at the beginning of the experiment. • Cells: Human H460 Large Cell Lung Cancer (ATCC: HTB-177); • 3×10^6 cells from cell culture was inoculated subcutaneously per mouse in a volume of 200 μl on day 0. • Application route: subcutaneously; • 1 tumor/mouse • Tumor volume at • start of therapy: 62.5-100 mm^3 • (formula: a×b^2×0.5; a: length, b width) • Test compounds: Cisplatin, • PSY 310 (Pirenzepine) • Dosing: Cisplatin • 1) high dose: 1×/week, 2 weeks (days 7, 14) • dose: 2.5 mg/kg/day; route: ip • 2) low dose 5×/week, 2 weeks (days 7-11+14-18) • dose: 0.15 mg/kg/day; route: ip • PSY 310 • 1×/day for 12 days (days 7-19) • dose: 50 and 20 mg/kg/day; route: po • Vehicle/solvent: Cisplatin:water for injection • PSY 310: PBS, oral gavage • Application volume: 10 ml/kg • Criteria for study termination: Animal weight loss >20% • Tumor >10% body weight or ulceration of tumors • Parameters: […] [table] [table] NCI-H460 human NSCLC cells were implanted in the flanks of immunodeficient mice and growth of the resultant solid tumors was recorded. Mice were assigned to seven treatment groups as indicated above. Tumor dimensions (and animal body weights) were measured on days 10, 14, 17, and 21 after inoculation, and tumor volumes were calculated. As tumor growth was close to exponential evaluations were performed on the common logarithms of tumor volumes in order to render the data suitable for evaluation by a linear model. […] Alternatively, the ratios log(volume)/log(initial volume) were employed, yielding very similar results. Tumors with extremely small initial volumes (<20 μl) in which volume measurements are expected to be rather imprecise were omitted from the evaluations. Comparisons were carried out in the following way: • The slopes of log(volume) over time (i.e. the exponent of the approximately exponential volume growth) were determined for each animal. The ratios of the exponents averaged over the respective groups are given as a measure of the magnitude of the growth retarding effect of the current treatment. • Multivariate variance analyses using the day of measurement and Cisplatin/PSY 310 treatment as model effects were performed.

Structure (SMILES)	exponent ratio (ratio of group-averaged slopes of log(tumor volume) over time) (Cisplatin high (2.5 mg/kg/day ip) versus Cisplatin low (0.15 mg/kg/day ip), ANOVA p = 0.91)	exponent ratio (ratio of group-averaged slopes of log(tumor volume) over time) (Cisplatin high (2.5 mg/kg/day ip, 1x/week, 2 weeks) versus Control, ANOVA p = 0.014)	exponent ratio (ratio of group-averaged slopes of log(tumor volume) over time) (Cisplatin low (0.15 mg/kg/day ip, 5x/week, 2 weeks) versus Control, ANOVA p = 0.077)	effect on tumor growth of cisplatin alone (in words) (cisplatin ip, low and high dose regimens)	exponent ratio (ratio of group-averaged slopes of log(tumor volume) over time) (PSY 310 50 mg/kg/day po alone (1x/day, 12 days) versus Cisplatin high, ANOVA p = 0.016)	exponent ratio (ratio of group-averaged slopes of log(tumor volume) over time) (PSY 310 50 mg/kg/day po alone (1x/day, 12 days) versus Control, ANOVA p = 0.0003)	effect on tumor growth, single agent (in words)	effect on tumor growth, single agent (in words) (listed as Pirenzepine)	potentiation of the cytostatic effects of cisplatin (in words)	potentiation of the cytostatic effects of cisplatin (in words) (listed as Pirenzepine)
N.N.[Cl][Pt][Cl] [Cisplatin]	0.96	0.81	0.85	moderate effects						
CN1CCN(CC(=O)N2c3ccccc3C(=O)Nc3cccnc32)CC1 [PSY 310]					0.74	0.61	even more effective than cisplatin-low dose and cisplatin-high dose regimens; also recorded: single agent cytostatic properties; also recorded: major effect	significant anti-cancer activity by itself	potentiating the cytostatic effects of cisplatin	significant potentiating anti-cancer activity
